From patent US8415393B2, “Anti-bacterial drug targeting of genome maintenance interfaces” (Wisconsin Alumni Research Foundation, priority 2007, dated 2013)
Numbering of substitutions follows the chain as printed. Numbers in names are those of the source. ≈ marks a conversion by molar mass, not a printed value. Entries after “also recorded” stand apart in the source; their conditions may differ. Read-outs that look alike come from different tables or passages of the source. Where no end group is shown, it is not given here. fluorescein = fluorescein moiety attached to the N-terminus of the peptide (N-terminal fluorescein label)

What was measured:
[1] = biological target: Exonuclease I/SSB-Ct complex (Escherichia coli, UniProt P04995); assay: Fluorescence polarization competition: inhibition of fluorescein-SSB C-terminal peptide binding to Exonuclease I (HTS and Ki determination); conditions: for peptide binding inhibition: ExoI/SSB-Ct peptide
Description: Peptide binding assays were performed in solution, using the peptides from above, and Exonuclease I, in the absence or presence of various compounds. Different amounts of Exonuclease I (ExoI) were used in the peptide binding assays. […] Fluorescence polarization (FP) was measured at 25° C. in triplicate; the average FP value was plotted with standard deviation of the mean shown as error.
Concentrated Exonuclease I was dialyzed overnight into 2 liters dilution buffer (DB) (20 mM Tris pH 8.0 HCl, 100 mM NaCl, 1 mM MgCl2, and 1 mM Beta-Mercaptoethanol). […] After sitting at room temperature for 5 min, a liquid handling system was used to aliquot this solution into 384 well plates providing 30 microliters/well. One microliter of 1 mM compound was then added. The screened compounds were obtained from the ChemBridge DIVERSet library (ChemBridge Corporation, San Diego, Calif.), from the Maybridge HitFinder library (Thermo Fisher Scientific, Waltham, Mass.), from the ChemDiv library (Chemical Diversity Labs, San Diego, Calif.), or from the Known Bioactive Library—KBA01.
The FP (fluorescence polarization) values for each well were read using a (plate reader) 5 minutes after compound addition.
Increasing amounts of compound were titrated into peptide protein mixture until FP values were lowered to values given by only fluorescently labeled peptide alone. Ki values were determined using the Ki calculator for fluorescence-based competitive binding assays of Prof. Shaomeng Wang, University of Michigan (Nikolovska-Coleska et al., 2004, Anal. Biochem. 332: 261-273).

[2] = test system: E. coli 4213 (imp4213, compromised cell wall); assay: microbe, parasite or virus in culture; type: cell-based; conditions: Escherichia coli
Description: The compromised cell wall allows the chemicals to pass through it more readily.
(§1) 100 μL of LB containing E. coli 1655, E. coli 4213, or S. aureus at A ˜0.05 OD 600 was aliquoted in 96 well plates. One μL of compound in DMSO was added to final concentrations given. Plates were incubated at 37° C. with shaking at 250 RPM. Rate of growth was calculated by determining the average change in OD/hour that took place between hours 3 and 7 (log growth phase). The graphs shown herein are plots of this bacterial growth rate (change in OD/h) against inhibitor concentration in μM.

[3] = test system: Staphylococcus aureus 12598; assay: Bacterial growth assay in LB liquid media, S. aureus; type: cell-based
Description: as §1

E. coli (imp4213) = assay: MIC on solid media, E. coli; type: cell-based; conditions: Escherichia coli, read-out: MIC (E. coli)
B. subtilis = assay: Growth on solid media (MIC; agar plates with compound), B. subtilis; type: cell-based, Bacillus subtilis; conditions: for MIC: Bacillus subtilis, solid media, B. subtilis; for Bactericidal for B. subtilis: Table 3 info column
Description: A number of the tested candidate compounds had profound inhibitory effects on bacterial growth. In addition, it was discovered that the identified drug compounds can slow the growth of a number of other Gram-positive bacterial species. For example, the growth of Bacillus subtilis and Enterococcus faecalis was inhibited when these bacteria were grown on agar plates containing 100 μM of either compound 9 or compound 10.

[4] = test system: HT-29 (human colorectal adenocarcinoma) cells; assay: Mammalian cell toxicity, CellTiter-Glo cell viability assay; type: cell-based
Description: The toxicity of the identified antimicrobial candidate compounds was tested using human colorectal adenocarcinoma cells in vitro. […] The mammalian cells were tested using a CellTiter-Glo cell viability assay (Promega, Madison, Wis.).

red blood cells = assay: In vitro hemolysis; type: cell-based; conditions: for % hemolysis at given concentration: 1 hour; for Hemolysis: Table 3, minimum concentration necessary to lyse red blood cells
Description: The identified small molecules were incubated with red blood cells to see what percentage of cells would lyse after 1 hour. Estimated hemolysis data are due to problem with reading absorbance, when the compound absorbs at the same wavelength as heme or if the compound precipitates. In such instances it is difficult to quantitate the absorbance readings; however, visual determination of how many cells have lysed can then be performed, which provides an estimate of cell lysis.

[5] = biological target: T1, fluorescein-labeled SSB C-terminal peptide, fluorescein-WMDFDDDIPF (E. coli); assay: equilibrium fluorescence anisotropy
T1 construct: also called F-WT; F-SSB-Ct
T1 peptide: fluorescein-WMDFDDDIPF

[6] = read-out: IC50 μM inhibitor, inhibition of E. coli growth
[7] = read-out: IC(50) E. coli imp4213
[8] = Staphylococcus aureus, 12598, Table 3, reduce growth 50% in liquid media, unit not given (Table 5 gives μM), read-out: IC(50) S. aureus
[9] = Staphylococcus aureus, 12598, Table 5, read-out: IC50 μM inhibitor, inhibition of S. aureus growth
[10] = Staphylococcus aureus, 12598, compound listing, bacterial growth in LB, read-out: IC50 Staphylococcus aureus
[11] = HT-29, Table 3, unit inferred, read-out: IC(50) Human cell line
[12] = HT-29 cells, CellTiter-Glo, read-out: IC50

Sequence of Exonuclease I/SSB-Ct complex (P04995 whole entry, one chain of several): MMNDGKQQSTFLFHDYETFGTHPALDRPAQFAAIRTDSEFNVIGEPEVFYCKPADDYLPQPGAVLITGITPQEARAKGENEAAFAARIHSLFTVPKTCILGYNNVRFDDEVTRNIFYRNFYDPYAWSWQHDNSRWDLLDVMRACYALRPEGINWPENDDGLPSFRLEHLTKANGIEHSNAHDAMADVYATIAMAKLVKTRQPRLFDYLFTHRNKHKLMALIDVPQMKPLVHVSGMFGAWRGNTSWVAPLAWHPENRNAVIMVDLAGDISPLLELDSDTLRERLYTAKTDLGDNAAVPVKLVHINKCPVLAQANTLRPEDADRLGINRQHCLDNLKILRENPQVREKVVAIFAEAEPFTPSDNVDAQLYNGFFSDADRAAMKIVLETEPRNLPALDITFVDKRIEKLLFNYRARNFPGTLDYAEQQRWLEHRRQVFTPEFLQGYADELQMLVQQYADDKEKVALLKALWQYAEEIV

Molecule: O=C(O)C(Cc1ccccc1)N1C(=O)/C(=C/c2cccc(Br)c2)SC1=S (centres unmarked) [Compound 3, 2-[5-(3-bromobenzylidene)-4-oxo-2-thioxo-1,3-thiazolidin-3-yl]-3-phenylpropanoic acid]
- Ki [1]: 2.5 µM
- Ki ([1]; Ki estimates, Table 2): 2.5 µM
- Ki ([1]; Ki, compound listing): ~2.5 µM
- IC50 [2, 6]: 6 µM
- IC50 ([2]; read-out: IC50 E. coli 4213): 5.5 µM
- IC50 [2, 7]: 6 µM
- IC50 [3, 8]: 9 µM
- IC50 [3, 9]: 9 µM
- IC50 [3, 10]: 10 µM
- MIC (E. coli (imp4213)): 3.6 µg/mL (≈ 8.03 µM)
- MIC (B. subtilis): 3.6 µg/mL (≈ 8.03 µM)
- Bactericidal for B. subtilis (B. subtilis): Compound 3; also called BOTP. Came from original Maybridge HTS collection. Bactericidal for B. subtilis
- IC50 [4, 11]: 12 µM
- IC50 [4, 12]: > 100 µM
- % hemolysis at given concentration (red blood cells; 100 μM): 20% 100
- Hemolysis (red blood cells): ~100 µM

Molecule: CC(/C=C1\SC(=S)N(C(C(=O)O)c2ccccc2)C1=O)=C\c1ccccc1 (centres unmarked) [Compound 8, [5-(2-methyl-3-phenyl-2-propen-1-ylidene)-4-oxo-2-thioxo-1,3-thiazolidin-3-yl](phenyl)acetic acid]
- Ki [1]: 4 µM
- Ki ([1]; Ki estimates, Table 2): 4 µM
- Ki ([1]; Ki, compound listing): ~4 µM
- IC50 [2, 6]: 11 µM
- IC50 ([2]; read-out: IC50 E. coli 4213): 11 µM
- IC50 [2, 7]: 11 µM
- IC50 [3, 8]: 29 µM
- IC50 [3, 9]: 30 µM
- IC50 [3, 10]: 29 µM
- MIC (E. coli (imp4213)): 4 µg/mL (≈ 10.1 µM)
- MIC (B. subtilis): 6.3 µg/mL (≈ 15.9 µM)
- Bactericidal for B. subtilis (B. subtilis): Compound 8; also called MPTA. Came from original Maybridge HTS collection. Bactericidal for B. subtilis
- IC50 [4, 11]: > 100 µM
- IC50 [4, 12]: > 100 µM
- % hemolysis at given concentration (red blood cells; 200 μM): estimated 0% 200
- % hemolysis at given concentration (red blood cells; 400 μM): estimated 90% 400 uM
- Hemolysis (red blood cells): ~200 µM

Molecule: Cc1nn(-c2nc3ccccc3s2)c(O)c1C [Compound 28, 1-(1,3-benzothiazol-2-yl)-3,4-dimethyl-1H-pyrazol-5-ol]
- peptide binding inhibition [1]: did not inhibit binding
- IC50 [2, 6]: 38 µM
- IC50 [2, 7]: 38 µM
- IC50 ([4]; HT-29): > 100 µM
- % hemolysis at given concentration (red blood cells; >800 μM): 0% >800
- Hemolysis (red blood cells): >800 µM

Molecule: CC(C)c1cc(O)n(-c2nc3ccccc3s2)n1 [Compound 29, 1-(1,3-benzothiazol-2-yl)-3-isopropyl-1H-pyrazol-5-ol]
- peptide binding inhibition [1]: did not inhibit binding
- IC50 [2, 6]: 88 µM
- IC50 [2, 7]: 88 µM
- IC50 ([4]; HT-29): > 100 µM
- % hemolysis at given concentration (red blood cells; >800 μM): 0% >800
- Hemolysis (red blood cells): >800 µM

Molecule: CC1=NN(c2nc3ccccc3s2)C(=O)C1 [Compound 31, 2-(1,3-benzothiazol-2-yl)-5-methyl-2,4-dihydro-3H-pyrazol-3-one]
- peptide binding inhibition [1]: much weaker binding; also recorded: did not inhibit binding
- IC50 [2, 6]: 50 to 100 µM
- IC50 [2, 7]: 50 to 100 µM
- % hemolysis at given concentration (red blood cells; >800 μM): 0% >800
- Hemolysis (red blood cells): >800 µM

Molecule: O=C(O)c1ccccc1Nc1cccc(C(F)(F)F)c1 [Compound 32, 2-[3-(trifluoromethyl)anilino]benzoic acid]
- Ki [1]: 1.5 µM
- Ki ([1]; Ki estimates, Table 2): 1.5 µM
- IC50 [2, 6]: 33 µM
- IC50 [2, 7]: 33 µM
- IC50 [3, 8]: 30 µM
- IC50 [3, 9]: 30 µM
- IC50 [4, 12]: > 100 µM
- % hemolysis at given concentration (red blood cells; >800 μM): 0% >800
- Hemolysis (red blood cells): >800 µM

Molecule: O=[N+]([O-])c1ccc(Oc2cc(C(F)(F)F)ccc2Cl)cc1O [Compound 37, 5-[2-chloro-5-(trifluoromethyl)phenoxy]-2-nitrophenol]
- Ki [1]: 0.7 µM
- Ki ([1]; Ki estimates, Table 2): 0.7 µM
- IC50 [2, 6]: 33 µM
- IC50 [2, 7]: 33 µM
- IC50 ([3]; Staphylococcus aureus, 12598, read-out: IC50 μM inhibitor, inhibition of S. aureus growth): 2.5 µM
- IC50 ([3]; Staphylococcus aureus, 12598, read-out: IC(50) S. aureus): 2.5 µM
- IC50 ([4]; HT-29): > 100 µM
- % hemolysis at given concentration (red blood cells; 800 μM): estimated 0% 800
- Hemolysis (red blood cells): >800 µM

Molecule: Cc1noc(C)c1C(=O)Nc1nc2ccc(Cl)cc2s1 [Compound 42, N-(6-chloro-1,3-benzothiazol-2-yl)-3,5-dimethyl-4-isoxazolecarboxamide]
- IC50 [3, 8]: 9 µM
- IC50 [3, 9]: 9 µM
- IC50 [4, 12]: 51 µM
- % hemolysis at given concentration (red blood cells; >800 μM): 0% >800
- Hemolysis (red blood cells): >800 µM

Molecule: CC1=NN(c2nc3ccc(Cl)cc3s2)C(=O)C1 [Compound 46, 1-(6-chloro-1,3-benzothiazol-2-yl)-3-methyl-4,5-dihydro-1H-pyrazol-5-one]
- Ki [1]: 1.5 µM
- Ki ([1]; Ki estimates, Table 2): 1.5 µM
- IC50 [4, 12]: 55 µM
- % hemolysis at given concentration (red blood cells; >800 μM): 0% >800
- Hemolysis (red blood cells): >800 µM

B1: ExoI Arg148 Ala variant (enzyme)
chain: MMNDGKQQSTFLFHDYETFGTHPALDRPAQFAAIRTDSEFNVIGEPEVFYCKPADDYLPQPGAVLITGITPQEARAKGENEAAFAARIHSLFTVPKTCILGYNNVRFDDEVTRNIFYRNFYDPYAWSWQHDNSRWDLLDVMRACYALAPEGINWPENDDGLPSFRLEHLTKANGIEHSNAHDAMADVYATIAMAKLVKTRQPRLFDYLFTHRNKHKLMALIDVPQMKPLVHVSGMFGAWRGNTSWVAPLAWHPENRNAVIMVDLAGDISPLLELDSDTLRERLYTAKTDLGDNAAVPVKLVHINKCPVLAQANTLRPEDADRLGINRQHCLDNLKILRENPQVREKVVAIFAEAEPFTPSDNVDAQLYNGFFSDADRAAMKIVLETEPRNLPALDITFVDKRIEKLLFNYRARNFPGTLDYAEQQRWLEHRRQVFTPEFLQGYADELQMLVQQYADDKEKVALLKALWQYAEEIV
notes: peptide-A-site variant; also called R148A; Arg148 variant
- fold weaker binding than wild-type ExoI [5]: 10 to 100 fold

B2: ExoI Glu150 Ala variant (enzyme)
chain: B1 chain with A148R, E150A
notes: also called E150A; Glu150 variant
- fold enhanced binding relative to wild-type ExoI [5]: ~2 fold

B3: ExoI Asp319 Ala variant (enzyme)
chain: B1 chain with A148R, D319A
notes: also called D319A; Asp319 variant
- fold binding defect [5]: 2 fold

B4: ExoI Arg316 Ala variant (enzyme)
chain: B1 chain with A148R, R316A
notes: peptide-A-site variant; also called R316A; Arg316 variant
- fold weaker binding than wild-type ExoI [5]: 10 to 100 fold

B5: ExoI Lys227 Ala variant (enzyme)
chain: B1 chain with A148R, K227A
notes: basic ridge variant; also called K227A; Lys227 variant
- fold binding defect [5]: 7 fold

B6: ExoI Gln311 Ala variant (enzyme)
chain: B1 chain with A148R, Q311A
notes: peptide-A-site variant; also called Q311A; Gln311 variant
- fold binding defect relative to wild-type ExoI [5]: 2 fold

B7: ExoI Glu318 Ala variant (enzyme)
chain: B1 chain with A148R, E318A
notes: also called E318A; Glu318 variant
- fold enhanced binding relative to wild-type ExoI [5]: ~2 fold

B8: ExoI Arg338 Ala variant (enzyme)
chain: B1 chain with A148R, R338A
notes: basic ridge variant; also called R338A; Arg338 variant
- fold binding defect [5]: 3 fold
